Experiments:
[1] = tested on: V79; assay: Differential hypoxic cytotoxicity towards chinese hamster cells (V79) using MTT assay under aerobic conditions; assay type: functional, cell-based; conditions: Cricetulus griseus
[2] = tested on: V79; assay: Differential hypoxic cytotoxicity towards chinese hamster cells (V79) using MTT assay under anaerobic conditions; assay type: functional, cell-based; conditions: Cricetulus griseus

Row | SMILES | IC50 [1] | IC50 [2]
1 | CCCCCCCCCCCCn1c2nc(=O)[nH]c(=O)c-2cc2cc([N+](=O)[O-])ccc21 | 16 µM | 22 µM
2 | CCCCCCCCn1c2nc(=O)n(-c3ccccc3)c(=O)c-2cc2ccc([N+](=O)[O-])cc21 | 6.1 µM | 1.2 µM
3 | CCCCCCCCCCCCn1c2nc(=O)[nH]c(=O)c-2cc2ccc([N+](=O)[O-])cc21 | 300 µM | 190 µM
4 | CCCCCCCCn1c2nc(=O)n(-c3ccccc3)c(=O)c-2cc2ccccc21 | > 1000 µM | > 1000 µM
5 | CCCCCCCCn1c2nc(=O)n(-c3ccccc3)c(=O)c-2cc2cccc([N+](=O)[O-])c21 | 1.7 µM | 3.7 µM
6 | CCCCCCCCCCCCn1c2nc(=O)n(C)c(=O)c-2cc2ccc([N+](=O)[O-])cc21 | 130 µM | 61 µM
7 | CCCCCCCCCCCCn1c2nc(=O)[nH]c(=O)c-2cc2cccc([N+](=O)[O-])c21 | 1.9 µM | 3.6 µM
8 | CCCCCCCCn1c2nc(=O)n(-c3ccccc3)c(=O)c-2cc2c([N+](=O)[O-])cccc21 | 3.6 µM | 0.56 µM
9 | CCCCCCCCCCCCn1c2nc(=O)[nH]c(=O)c-2cc2c([N+](=O)[O-])cccc21 | 4.3 µM | 1.1 µM
10 | CCCCCCCCCCCCn1c2nc(=O)n(C)c(=O)c-2cc2cc([N+](=O)[O-])ccc21 | > 1000 µM | > 1000 µM
11 | CCCCCCCCCCCCn1c2nc(=O)[nH]c(=O)c-2cc2ccccc21 | > 1000 µM | > 1000 µM
12 | CCCCCCCCCCCCn1c2nc(=O)n(C)c(=O)c-2cc2cccc([N+](=O)[O-])c21 | > 1000 µM | > 1000 µM
13 | CCCCCCCCCCCCn1c2nc(=O)n(C)c(=O)c-2cc2c([N+](=O)[O-])cccc21 | 7.2 µM | 2.9 µM
14 | CCCCCCCCn1c2nc(=O)n(-c3ccccc3)c(=O)c-2cc2cc([N+](=O)[O-])ccc21 | 27 µM | 19 µM
15 | CCCCCCCCCCCCn1c2nc(=O)n(C)c(=O)c-2cc2ccccc21 | > 1000 µM | > 1000 µM
16 | NC(=O)N/N=C/c1ccc([N+](=O)[O-])o1 [NITROFURAZONE] | 740 µM | 270 µM
